Data set [1] concerns the target Cellular tumor antigen p53 (Homo sapiens) (UniProt P04637). In words: Inhibition of p53 in human MOLT-4 cells assessed as suppression of gamma-irradiation-induced decrease in cell viability at 20 to 100 uM preincubated for 1 hr followed by 10 Gy 137Cs gamma-ray exposure and measured after 27 hrs by erythrosin B staining based dye exclusion assay. Conditions: dose 20-100 µM, time 28.0 hrs.

The subject of data set [2] is MOLT-4. As to the kind of experiment: Cytotoxicity against human MOLT-4 cells assessed as reduction in cell viability measured after 1 hr by erythrosin B staining based dye exclusion assay. Format: toxicity. As to conditions: molt-4, 1 h.
Data set [3] deals with Cellular tumor antigen p53 (Homo sapiens) (UniProt P04637). As to the kind of experiment: Inhibition of p53 in human MOLT-4 cells assessed as suppression of gamma-irradiation-induced decrease in cell viability at 40 uM preincubated for 1 hr followed by 10 Gy 137Cs gamma-ray exposure and measured after 27 hrs by erythrosin B staining based dye exclusion assay. Conditions: time 28.0 hrs.

Data set [4] relates to MOLT-4. As to the kind of experiment: Cytotoxicity against human MOLT-4 cells assessed as reduction in cell viability at 40 uM measured after 1 hr by erythrosin B staining based dye exclusion assay. Conditions: molt-4, 1 h. The class given is toxicity.
The test system of data set [5] is MOLT-4. As to the kind of experiment: Cytotoxicity against human MOLT-4 cells assessed as reduction in cell viability at 10 to 20 uM measured after 1 hr by erythrosin B staining based dye exclusion assay. Format: toxicity. Conditions: molt-4, 1 h, dose 10-20 µM.
The target of data set [6] is Cellular tumor antigen p53 (Homo sapiens) (UniProt P04637). In words: Inhibition of p53 in human MOLT-4 cells assessed as suppression of gamma-irradiation-induced decrease in cell viability at 20 uM preincubated for 1 hr followed by 10 Gy 137Cs gamma-ray exposure and measured after 27 hrs by erythrosin B staining based dye exclusion assay. Conditions: time 28.0 hrs.

The subject of data set [7] is MOLT-4. In words: Cytotoxicity against human MOLT-4 cells assessed as reduction in cell viability at 80 uM measured after 1 hr by erythrosin B staining based dye exclusion assay. Format: toxicity. As to conditions: molt-4, 1 h.
Data set [8] concerns MOLT-4. As to the kind of experiment: Radioprotective activity in gamma-irradiated human MOLT-4 cells assessed as reduction in p53 expression at 3 to 100 uM preincubated for 1 hr followed by 10 Gy 137Cs gamma-ray exposure and measured after 6 hrs by Western blot analysis. The class given is functional, cell-based. As to conditions: dose 3-100 µM, time 7.0 hrs. On the technique in general: In western blotting, separated proteins are transferred to a membrane and probed.

The target of data set [9] is Cellular tumor antigen p53 (Homo sapiens) (UniProt P04637). In words: Inhibition of p53 in human MOLT-4 cells assessed as suppression of gamma-irradiation-induced decrease in cell viability at 50 to 100 uM preincubated for 1 hr followed by 10 Gy 137Cs gamma-ray exposure and measured after 27 hrs by erythrosin B staining based dye exclusion assay. As to conditions: dose 50-100 µM, time 28.0 hrs.

Calls of active or inactive are those of the source. No cut-off for these calls is given here.

Cellular tumor antigen p53 (Homo sapiens), sequence (P04637 whole entry, looked up): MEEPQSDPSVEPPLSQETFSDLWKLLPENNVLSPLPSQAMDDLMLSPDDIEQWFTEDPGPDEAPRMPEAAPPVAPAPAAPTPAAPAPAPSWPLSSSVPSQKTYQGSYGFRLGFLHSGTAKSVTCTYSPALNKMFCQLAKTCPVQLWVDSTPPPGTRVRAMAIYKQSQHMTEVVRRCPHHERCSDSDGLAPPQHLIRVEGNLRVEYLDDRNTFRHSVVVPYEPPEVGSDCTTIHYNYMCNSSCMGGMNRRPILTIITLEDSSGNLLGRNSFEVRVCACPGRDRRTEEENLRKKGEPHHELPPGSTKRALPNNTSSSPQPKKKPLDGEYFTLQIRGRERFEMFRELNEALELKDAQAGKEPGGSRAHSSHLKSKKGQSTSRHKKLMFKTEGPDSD

Regarding `COC(=O)C1=C(C)N(c2cccc(OC)c2)C(=O)C1=Cc1ccc(C(=O)O)cc1`, the inhibition result in data set [1] is “Active”.
`COC(=O)C1=C(C)N(c2cccc(OC)c2)C(=O)/C1=C\c1ccccc1S(=O)(=O)[O-].[Na+]`: the Activity result with MOLT-4 [2] was “Non-Toxic”.
Take `COC(=O)C1=C(C)N(c2ccccc2)C(=O)/C1=C\c1ccc(C(=O)O)cc1`: the inhibition result in data set [1] was “Active”.
Consider `COC(=O)C1=C(C)N(c2cccc(OC)c2)C(=O)/C1=C\c1ccc(C(=O)NO)cc1`, for which the inhibition result in [3] was “Active”. Besides, the Activity entry in the data set on MOLT-4 [4] is given as “Non-Toxic”; in the data set with MOLT-4 [5] it was “Toxic”.
`COC(=O)C1=C(C)N(c2cccc(OC)c2)C(=O)/C1=C\c1ccncc1`: the Activity result in the data set on MOLT-4 [2] is listed as “Toxic”.
With `COC(=O)C1=C(C)N(c2ccc(OC)cc2)C(=O)/C1=C\c1ccc(C(=O)O)cc1`, the inhibition entry in data set [1] was “Active”.
In the case of `CCOC(=O)c1ccc(/C=C2\C(=O)N(c3cccc(OC)c3)C(C)=C2C(=O)OC)cc1`, the Activity result in the data set with MOLT-4 [2] was “Toxic”.
Regarding `COC(=O)C1=C(C)N(c2cccc(OC)c2)C(=O)/C1=C\c1ccc(C(=O)O)cc1`, the inhibition result in data set [6] is “Active”. Moreover, the Activity result in the data set on MOLT-4 [7] is on record as “Toxic”. Moreover, the outcome in the data set with MOLT-4 [8] was Active.
On to `COC(=O)C1=C(C)N(c2cccc(OC)c2)C(=O)/C1=C\c1ccncc1O`, for which, in the data set with MOLT-4 [2], the Activity entry is given as “Toxic”.
`COC(=O)C1=C(C)N(c2ccccc2OC)C(=O)/C1=C\c1ccc(C(=O)O)cc1`: in [1], the inhibition result is “Active”.
As to `CCCCCCOC(=O)C1=C(C)N(c2cccc(OC)c2)C(=O)/C1=C\c1ccc(C(=O)O)cc1`, the Activity entry in the data set with MOLT-4 [2] was “Toxic”.
For `COC(=O)C1=C(C)N(c2cccc(OC)c2)C(=O)/C1=C\c1ccc(-c2nnn[nH]2)cc1`, in data set [1], the inhibition entry was “Active”. Besides, the result in the data set with MOLT-4 [8] was Active.
Turning to `COC(=O)C1=C(C)N(c2cccc(OC)c2)C(=O)/C1=C/c1ccc(C(=O)O)cc1`, the inhibition entry in data set [1] is “Active”.
Regarding `COC(=O)C1=C(C)N(c2cccc(OC)c2)C(=O)/C1=C\c1cccc(C(=O)O)c1`, the inhibition entry in data set [1] is “Active”.
Regarding `COC(=O)C1=C(C)N(c2cccc(O)c2)C(=O)/C1=C\c1ccc(C(=O)O)cc1`, in [9], the inhibition entry is “Active”.
For `COC(=O)C1=C(C)N(c2cccc(OC)c2)C(=O)/C1=C\c1cncnc1`, the Activity entry in the data set with MOLT-4 [2] is “Toxic”.
Still for that read-out and setting: the result for `CCCCCCOc1cccc(N2C(=O)/C(=C\c3ccc(C(=O)O)cc3)C(C(=O)OC)=C2C)c1` reads “Toxic”.
Still for that read-out and setting: in the case of `COC(=O)C1=C(C)N(c2cccc(OC)c2)C(=O)/C1=C\c1ccc(S(N)(=O)=O)cc1` it was “Toxic”.
Turning to `COC(=O)C1=C(C)N(c2cccc(OC(C)C)c2)C(=O)/C1=C\c1ccc(C(=O)O)cc1`, the inhibition entry in data set [6] is “Active”. Besides, the Activity result in the data set with MOLT-4 [7] is recorded as “Toxic”. Also, the result in the data set on MOLT-4 [8] was Active.
Consider `COC(=O)C1=C(C)N(c2cccc(OC)c2)C(=O)/C1=C\c1ccc(OC)cc1`, for which the Activity result in the data set on MOLT-4 [2] is on record as “Toxic”.
Consider `CNC(=O)C1=C(C)N(c2cccc(OC)c2)C(=O)/C1=C\c1ccc(C(=O)O)cc1`, for which the inhibition result in data set [9] was “Active”.
For `COc1cccc(N2C(=O)/C(=C\c3ccc(C(=O)O)cc3)C(C(=O)OC(C)(C)C)=C2C)c1`, in the data set on MOLT-4 [2], the Activity result is on record as “Toxic”.
As to `COC(=O)C1=C(C)N(c2cccc(OC)c2)C(=O)/C1=C\c1ccc([N+](=O)[O-])cc1`, the Activity result in the data set on MOLT-4 [2] is “Toxic”.
Take `COC(=O)C1=C(C)N(c2cccc(OC)c2)C(=O)/C1=C\c1ccc(Cl)cc1`: the Activity result in the data set with MOLT-4 [2] was “Toxic”.
For the compound `CCOC(=O)C1=C(C)N(c2cccc(OC)c2)C(=O)/C1=C\c1ccc(C(=O)O)cc1`, the inhibition entry in data set [1] is “Active”.

Values taken from ChEMBL document CHEMBL5126580, “Design, synthesis and biological evaluation of 2-pyrrolone derivatives as radioprotectors” (Bioorg Med Chem, 2022).
